Literature values, collected in patent US20080014152A1, “INTRANASAL DELIVERY OF C[…] THE […] AND INTO THE BRAIN” (priority 2006, published 2008).

What was measured:
β2 adrenergic receptors = biological target: T1, β2 adrenergic receptors (Rattus norvegicus, UniProt P10608); conditions: Colangelo 1998; stimulation of β2 adrenergic receptors
T1 construct: host or cells: rat cerebral cortex (in vivo)

NGF mRNA = conditions: Follesa 1993; 10 mg/kg intraperitoneal, within 5 hours of administration
hippocampal cells = conditions: Zhu 2001
U937 cell = conditions: Izeboud 1999; U937 cells stimulated with LPS
astrocytes = conditions: Abdulla 2005; astrocytes treated with LPS
NGF protein = conditions: Zhu 1998; intraperitoneal
hippocampal cultures = conditions: Semkova 1996; in vitro exposure of hippocampal cultures
[1] = McIntyre 2005; infusions into the amygdala
[2] = Sleeper 2002; chronic systemic administration
[3] = Culmsee 1999
[4] = Culmsee 2004
[5] = Rami 2003; after transient global ischemia

T1 sequence (P10608 whole entry): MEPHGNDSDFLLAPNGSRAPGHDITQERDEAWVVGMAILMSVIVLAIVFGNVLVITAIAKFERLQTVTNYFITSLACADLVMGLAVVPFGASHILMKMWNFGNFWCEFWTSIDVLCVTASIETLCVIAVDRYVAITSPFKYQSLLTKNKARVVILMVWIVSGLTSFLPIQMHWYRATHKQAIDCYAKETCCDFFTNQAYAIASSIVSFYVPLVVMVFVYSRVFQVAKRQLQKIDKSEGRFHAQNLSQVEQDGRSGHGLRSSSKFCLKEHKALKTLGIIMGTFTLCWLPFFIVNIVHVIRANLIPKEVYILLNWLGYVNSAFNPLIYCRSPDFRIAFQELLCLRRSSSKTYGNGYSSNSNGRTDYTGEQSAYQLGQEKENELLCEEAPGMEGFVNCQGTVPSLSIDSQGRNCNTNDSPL

CC(C)(C)NCC(O)c1cc(Cl)c(N)c(Cl)c1 (stereo not drawn) [clenbuterol]
NGF biosynthesis in the rat cerebral cortex (β2 adrenergic receptors): increases NGF biosynthesis | increase in NGF mRNA in the cerebral cortex (NGF mRNA): 2-3 fold | TGF-β immunoreactivity (TGF-β; Zhu 2001, 0.5 mg/kg, as early as 3 hours after administration, elevated up to 2 days): increase TGF-β immunoreactivity | induction of TGF-β production in neurons (TGF-β; in vivo): 2-3 × | neuroprotection of hippocampal cells after ischemia (hippocampal cells): provided neuroprotection | increase in bFGF mRNA in the cerebral cortex, hippocampus and cerebellum (bFGF mRNA; Follesa 1993, 10 mg/kg intraperitoneal, within 5 hours of administration): 2-3 fold | induction of bFGF production in neurons (bFGF mRNA; in vivo): 2-3 × | IL-6 production (U937 cell): decreasing | IL-10 production (U937 cell): increase IL-10 production | TNF-α production (U937 cell): decreasing | protection from inflammation in astrocytes (astrocytes): provides protection from inflammation | elevation of NGF protein levels in the rat hippocampus (NGF protein): 33% | NGF content in the culture medium (hippocampal cultures): enhanced significantly | memory [1]: enhance memory | side effects, cardiac function [2]: negative alteration of cardiac function | cortical infarct volume ([3]; 0.01-0.5 mg/kg, rats, measured 7 days after permanent occlusion of the middle cerebral artery): reduced cortical infarct volume | blood pressure ([3]; dosages greater than 1 mg/kg): decrease in blood pressure | cerebroprotective effect ([3]; dosages greater than 1 mg/kg): no cerebroprotective effect | plasma glucose level ([3]; dosages greater than 1 mg/kg): increase in plasma glucose level | neuroprotective capacity in experimental models of stroke [4]: neuroprotective capacity | apoptosis in the rat hippocampus [5]: attenuates apoptosis
